Experiments:
MLH1-ΔConMot-PMS2 = biological target: T1, MLH1-ΔConMot-PMS2 (Homo sapiens, UniProt P40692+P54278, DEL377-396); assay: DNA mismatch repair (MMR) complementation assay with peptide, MLH1-ΔConMot variant; type: biochemical
T1 construct: The pcDNA3 expression vector containing the entire open reading frame of human MLH1; expressed in transfected cells; host or cells: HEK293T (MLH1-deficient), transiently co-transfected
T1 sequence (P40692 with tags, fused parts or gaps DEL377-396): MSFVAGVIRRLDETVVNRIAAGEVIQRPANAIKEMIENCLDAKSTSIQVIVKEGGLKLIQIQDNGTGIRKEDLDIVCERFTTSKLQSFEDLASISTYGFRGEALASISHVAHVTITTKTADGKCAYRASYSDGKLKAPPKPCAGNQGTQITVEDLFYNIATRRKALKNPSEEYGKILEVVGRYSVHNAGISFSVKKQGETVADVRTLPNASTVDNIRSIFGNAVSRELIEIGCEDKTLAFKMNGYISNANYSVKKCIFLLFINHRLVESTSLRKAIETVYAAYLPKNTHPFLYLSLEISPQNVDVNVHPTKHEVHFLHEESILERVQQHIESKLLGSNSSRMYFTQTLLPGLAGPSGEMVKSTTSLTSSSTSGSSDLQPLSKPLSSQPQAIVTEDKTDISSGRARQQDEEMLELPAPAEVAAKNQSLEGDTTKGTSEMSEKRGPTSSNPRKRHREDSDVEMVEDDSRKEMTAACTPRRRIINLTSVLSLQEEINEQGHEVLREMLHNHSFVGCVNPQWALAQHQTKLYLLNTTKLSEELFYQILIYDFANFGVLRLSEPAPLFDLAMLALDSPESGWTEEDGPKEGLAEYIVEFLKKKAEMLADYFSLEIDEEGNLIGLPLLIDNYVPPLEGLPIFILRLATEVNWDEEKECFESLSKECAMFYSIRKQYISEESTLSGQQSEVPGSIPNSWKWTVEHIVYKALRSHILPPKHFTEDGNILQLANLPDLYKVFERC
T1 sequence (P54278 1-862 partner): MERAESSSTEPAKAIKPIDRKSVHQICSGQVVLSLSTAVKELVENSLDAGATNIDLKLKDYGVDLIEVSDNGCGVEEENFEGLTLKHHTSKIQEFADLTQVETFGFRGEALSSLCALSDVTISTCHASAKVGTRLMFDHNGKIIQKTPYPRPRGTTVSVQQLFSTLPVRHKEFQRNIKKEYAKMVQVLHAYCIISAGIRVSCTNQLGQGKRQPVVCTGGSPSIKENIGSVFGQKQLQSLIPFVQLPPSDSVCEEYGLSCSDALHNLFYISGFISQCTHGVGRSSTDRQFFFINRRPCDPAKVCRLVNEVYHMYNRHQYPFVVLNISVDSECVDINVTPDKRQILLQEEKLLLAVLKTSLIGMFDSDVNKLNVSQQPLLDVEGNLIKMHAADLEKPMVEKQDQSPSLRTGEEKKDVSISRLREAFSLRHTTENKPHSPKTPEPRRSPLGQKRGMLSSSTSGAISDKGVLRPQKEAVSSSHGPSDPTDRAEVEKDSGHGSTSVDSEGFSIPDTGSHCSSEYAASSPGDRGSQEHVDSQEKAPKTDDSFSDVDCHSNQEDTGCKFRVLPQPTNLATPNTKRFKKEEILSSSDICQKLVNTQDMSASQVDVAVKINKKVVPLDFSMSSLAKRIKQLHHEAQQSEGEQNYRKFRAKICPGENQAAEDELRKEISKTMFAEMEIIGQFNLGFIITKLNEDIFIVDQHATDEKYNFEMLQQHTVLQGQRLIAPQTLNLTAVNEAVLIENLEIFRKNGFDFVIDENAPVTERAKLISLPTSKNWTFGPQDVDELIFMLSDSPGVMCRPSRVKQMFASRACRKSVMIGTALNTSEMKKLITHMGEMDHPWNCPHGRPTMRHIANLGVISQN
Procedure: Mismatch repair activity was assessed as described in detail before ([79],[81]) (Supplementary Figure S3). […] Mismatched DNA plasmid substrate (Supplementary Figure S3) prepared according to previously published procedures ([81–83]) was added, and reactions in a final volume of 25 μl were incubated at 37°C for 15 min. Repair efficiency was scored by purifying the mismatched DNA plasmid from the reaction and assessing the fraction of homoduplex sequence by restriction digestion of the mismatched site using EcoRV. The substrate was additionally linearized with AseI.
For complementation assays with peptide, the indicated peptide(s) were used at stock concentrations of 50 or 500 μM in HEPES–KOH 20 mM pH 7.6 and supplemented to the MMR reactions.
Figure 4. Reaction of DNA mismatch repair to addition of ConMot peptide. (A) Nuclear extract of MLH1-proficient HEK293 cells was used for performing the DNA mismatch repair reaction. Four reactions were undertaken, with two reactions supplemented with either 7.5 μM or 75 μM ConMot-32 peptide. A negative control reaction was performed by omitting the 37°C repair incubation. (B) MMR reactions were performed with nuclear extract of MLH1-deficient HEK293T cells supplemented with extract of cells transfected either with wildtype MLH1-PMS2 (positive control) or with MLH1-ΔConMot-PMS2. To these MMR reactions, different peptides were added at a concentration of 75 μM: A ConMot-32 peptide (A), a Scramble-32 peptide (B) in which the conserved ConMot sequence is scrambled, and a short ConMot-20 peptide (C) that only contains the twenty highly conserved ConMot residues. The peptide sequences are given below the gel image. (C) The concentration-dependence of the MMR-activating effect of the ConMot-32 peptide observed in (B) was measured over a concentration range from 1–75 μM. (D) Theoretical binding curves of a ligand (peptide) to a protein were calculated for dissociation constants (KD) of 1, 5 and 10 μM for a protein concentration as present for MLH1-PMS2 in the MMR assay reactions (see also Supplementary Figure S3). Into this diagram, the average MMR activities (and standard deviations) measured in >3 of the experiment exemplarily shown in C were introduced as bars at ConMot-32 peptide concentrations of 1, 2.5, 7.5, 18 and 75 μM.
Second, we used extract of the repair-deficient cell line HEK293T supplemented with either wildtype MutLα (MLH1-PMS2) or the ΔConMot deletion variant, corresponding to experiment shown in Figure 2B. In this experiment, we again added ConMot peptide.
We investigated the effect of the ConMot peptide more closely by titrating the required peptide concentrations for activation. We determined that the mismatch repair reactions performed in this study contained approximately 280 fmol MLH1 (Supplementary Figure S4A and B), which is in good agreement with previous quantifications of MLH1-PMS2 in cells and extracts ([96]). […] Dissociation constants (KD) for peptides to proteins are typically in the range of 1–10 μM ([97]). We compared the measured concentration-dependent MMR activities with theoretical binding curves of (peptide) ligands to (protein) substrates for KD values of 1, 5 and 10 μM (Supplementary Figure S4C) at the determined MLH1 concentration. […] It is therefore plausible that a binding reaction of the ConMot peptide (to a protein) underlies the restauration of MMR activity. […]
Deletion C on M ot (∆Co nMot) c.1129_1188del CTGCAGCCTCTGAGCAAA […]
Del et i on comp are (∆Compare) c.1221_1280del […] ACTGGACAGGGGTTTGCT
Scramble c.1147_1160delinsGAC ggtacgtTCCCGGGAACAGAAGCT atagtgtcCTGGTGGGCATAGACCT
p.(M383_D387delinsDTMVR) ACTATGGTAC G T TATC
ConMot hy bri d gcataTCTGCAGCCTCTGAGCAA acagg[…]
Supplementary Table 1: Analyzed variant inf ormation.
Variant descriptions confer to HGVS format and refer to the MLH1 reference cDNA (NM_000249.4) […]

yMLH1-yPMS1 = test system: yMLH1-yPMS1; design: method as in Torres et al. [100]; conditions: 25mer yeast peptide, molar ratio 0-250-500-1000 to yMLH1-PMS1, MLH1-PMS2 35 nM, 1 mM Mn2+; ref Torres et al. [100]; cited from earlier work
[1] = biological target: MLH1-ΔConMot-PMS2 (MutLα heterodimer with the ConMot deletion variant of MLH1) (human) (UniProt P40692)

KVYAHQMVRTDSREQKLDAF [ConMot-20]
effect of 20mer-ConMot on MMR restauration by the 32mer-ConMot (MLH1-ΔConMot-PMS2; Figure 4B, peptides at 75 μM, combined peptides, 37°C, 15 min): did not affect MMR restauration
effect of peptide on MMR (summary in Supplementary Table 2) (MLH1-ΔConMot-PMS2; molar ratio 0-860-2300-8600 to hMLH1-PMS2, Tris-HCl pH 7.5, 5 mM Mg2+, 1.5 mM ATP): inactive

KAKRQENKL VRI D ASQAKITSFLSS [25mer]
effect of peptide on endonuclease activation of yMLH1-yPMS1 (yMLH1-yPMS1): inhibiting endonuclease activit y

SGSSDMVQFEKLKDRRSQDATYVAHLQPLSKP [Scramble-32]
restoration of DNA mismatch repair activity of the ΔConMot variant (MLH1-ΔConMot-PMS2; peptide 75 μM (Figure 4B), HEK293T nuclear extract 50 μg + 5 μg transfected extract, 25 μl, 37°C, 15 min, EcoRV/AseI digestion, agarose gel): did not restore MMR activity

SGSSDKVYAHQMVRTDSREQKLDAFLQPLSK [ConMot-32 peptide (32-mer peptide containing the sequence of the MLH1-ConMot)]
KD read by comparing the concentration-dependent MMR restoration with theoretical binding curves of a peptide ligand to a protein at the determined MLH1 concentration [1]: 7.5 µM

Reference: article PMC10325900, “A conserved motif in the disordered linker of human MLH1 is vital for DNA mismatch repair and its function is diminished by a cancer family mutation” (Nucleic Acids Research, 2023)
